Measurements taken from patent publication US11896573B2, “Pharmaceutical compositions and pharmacokinetics of a gamma-hydroxybutyric acid derivative” (priority 2020, dated 2024).

Test: Food effect and relative bioavailability crossover study, Compound (1) vs sodium oxybate
Settings: 7.25 g Compound (1) oral; for AUC(0-inf) / AUC(0-t) / Cmax / half-life / Tmax: human, plasma, po, 7.25 g; for AUC(0-inf): Compound (1) plasma AUC0-inf; for Tmax: Compound (1) plasma Tmax

For CC(C)[C@H](N)C(=O)OCCCC(=O)O [Compound (1), 4-((L-valyl)oxy)butanoic acid], the “plasma Compound (1) AUC0-tlast, Adjusted Geometric Mean Ratio (Fed vs Fasted)” value was 1.28, the “plasma Compound (1) Cmax, Adjusted Geometric Mean Ratio (Fed vs Fasted)” value was 0.65 and the “Compound (1) plasma AUC0-inf, Max” value (Fasted) was 30800 ng·h/mL. For the same compound, the “Compound (1) plasma AUC0-inf, Min” value (Fasted) was 9500 ng·h/mL, the “Compound (1) plasma AUC0-tlast, Max” value (Fasted) was 36100 ng·h/mL and the “Compound (1) plasma AUC0-tlast, Min” value (Fasted) was 9400 ng·h/mL. The “Compound (1) plasma Cmax, Max” value (Fasted) was 43600 ng/mL, the “Compound (1) plasma Cmax, Min” value (Fasted) was 9400 ng/mL and the “Compound (1) plasma T1/2, Max” value (Fasted) was 114 min. For the same compound, the “Compound (1) plasma T1/2, Min” value (Fasted) was 16.2 min, the “Compound (1) plasma AUC0-inf, Max” value (Fed) was 39000 ng·h/mL and the “Compound (1) plasma AUC0-inf, Min” value (Fed) was 16000 ng·h/mL. The “Compound (1) plasma AUC0-tlast, Max” value (Fed) was 38600 ng·h/mL, the “Compound (1) plasma AUC0-tlast, Min” value (Fed) was 15900 ng·h/mL and the “Compound (1) plasma Cmax, Max” value (Fed) was 27800 ng/mL. The “Compound (1) plasma Cmax, Min” value (Fed) was 5500 ng/mL, the “Compound (1) plasma T1/2, Max” value (Fed) was 69 min and the “Compound (1) plasma T1/2, Min” value (Fed) was 16.2 min. For the same compound, the “Compound (1) plasma Tmax, Max” value (Fed) was 90 min, the AUC(0-inf) (Mean, Fasted) was 22400 ng·h/mL and the AUC(0-inf) (Mean, Fed) was 29000 ng·h/mL. The AUC(0-inf) (Median, Fasted) was 20400 ng·h/mL, the AUC(0-inf) (Median, Fed) was 29100 ng·h/mL and the AUC(0-t) (Compound (1) plasma AUC0-tlast, Mean, Fasted) was 23900 ng·h/mL. The AUC(0-t) (Compound (1) plasma AUC0-tlast, Mean, Fed) was 28800 ng·h/mL, the AUC(0-t) (Compound (1) plasma AUC0-tlast, Median, Fasted) was 22500 ng·h/mL and the AUC(0-t) (Compound (1) plasma AUC0-tlast, Median, Fed) was 29000 ng·h/mL. It also gave a Cmax (Compound (1) plasma Cmax, Mean, Fasted) of 27700 ng/mL, a Cmax (Compound (1) plasma Cmax, Mean, Fed) of 18100 ng/mL and a Cmax (Compound (1) plasma Cmax, Median, Fasted) of 27300 ng/mL. For the same compound, the Cmax (Compound (1) plasma Cmax, Median, Fed) was 17300 ng/mL, the half-life (Compound (1) plasma T1/2, Mean, Fasted) was 32.4 min and the half-life (Compound (1) plasma T1/2, Mean, Fed) was 38.4 min. The half-life (Compound (1) plasma T1/2, Median, Fasted) was 21 min, the half-life (Compound (1) plasma T1/2, Median, Fed) was 35.4 min and the Tmax (Median, Fasted) was 45 min. It also gave a Tmax (Median, Fed) of 30 min, an AUC(0-t) (plasma Compound (1) AUC0-tlast, Adjusted Geometric Mean, Fasted) of 21000 ng·h/mL and an AUC(0-t) (plasma Compound (1) AUC0-tlast, Adjusted Geometric Mean, Fed) of 27000 ng·h/mL. The Cmax (plasma Compound (1) Cmax, Adjusted Geometric Mean, Fasted) was 25400 ng/mL and the Cmax (plasma Compound (1) Cmax, Adjusted Geometric Mean, Fed) was 16500 ng/mL.
